For series [1] the following is noted: mice, cited from earlier work.
The test system of another series is intact mice. Kind of series: Behavioral tests on intact animals (open field, freezing). The class given is in vivo. The settings on record: for lowest dose showing antidepressant effects: intact mice, preliminary experiments (unpublished observations); for effect in behavioral tests, individually: mouse, in vivo. The procedure:
The trials were performed at the Department of Clinical and Experimental Medicine of the University of Foggia according to the following rationale. • 1. In the present mouse model of beta-amyloid toxicity, using validated tests in mice, we evaluated the behaviors: • a. antidepressant: Tail Suspension Test (TST); Forced Swimming Test (FST); Splash Test (ST) with latency time (sec) and self-care (sec) measurement. • b. antianxiety: Open Field Test with measurement of distance traveled (m), time spent in the wall (sec), time spent in the center (sec), center entries (n); Freezing Test (sec). • c. on memory, learning, coordination of motor skills, fear conditioning: Rotarod Test with measure of Latency to Fall, repeated after training to evaluate motor learning. • 2. We tested the protective effects with the following procedure: • a. individually: βCP, FE, βBA, DHA and HA4; • b. in association with pairs: βCP+HA4, FE+HA4, βBA+HA4, FE+βCP, βBA+FE, βBA+βCP. • c. in association, all four together: βCP+FE+βBA+HA4 • d. versus control (SHAM), • e. using the mouse model of an Aβ-induced depressive phenotype. • 3. These behavioral tests were integrated with serotonin, dopamine, noradrenaline and their metabolites prefrontal cortex and hippocampus measurement. • 4. Furthermore, we evaluated the cortical and hippocampal glutamate (GLU) levels in mice treated with AP and subsequently we tested the ability of βCP, FE, βBA and HA4, to modulate this neurochemical parameter.
βCP, FE e βBA (Merck, Cayman Chemical Company) was dissolved in sunflower oil, this vehicle was chosen in order to maintain a better tasting and higher density of the final solution thus reducing reflux through the digestive tract.
(§1) Ten μl of the solution (or vehicle alone) were administered sublingually to mice. Brain βCP, FE e βBA were quantified in a separate subset of mice at 5, 15 and 30 min after their administration.
Open Field Test. Mice were placed in an open field arena and allowed to explore for 30 min [Lama A et al. 2021]. After each trial, the arena floor was cleaned with 70% ethanol to avoid inter-assay bias. The movements of mice were video recorded and analyzed by ANY-maze tracking software (Ugo Basile-Varese, Gemonio, Italy). Locomotion was evaluated through total crossing measurements.

For series [2] the following is noted: Weber C C et al. 2006; cited from earlier work.
The conditions of series [3]: cited from earlier work.
A short description of series [4]: Plasma and brain levels of βBA and AKBA via os in mice (Gerbeth K et al. 2013). The class given is in vivo. The text has this: βBA appears not to undergo blood-brain barrier. According to the data of Gerbeth K et al. 2013, brain levels of AKBA were very low, resulting 0.4 per AKBA in the brain/plasma ratio (but 0.81 according to Weber C C et al. 2006). In contrast, the § BA concentration in the brain was even higher than that found in the blood with 32% increase (See Table 1).

The conditions of series [5]: healthy volunteers, via os, cited from earlier work.
Series [6] can be described thus: Pharmacokinetics of βBA and AKBA via os in healthy volunteers, fasted and hyperlipidic meal (Sterk V et al. 2004). Particulars: healthy volunteers. The class given is in vivo, humans. The text has this: Indeed, βBA has a concentration in the blood: • at least 6 times higher than AKBA both in the fasting condition and with a hyperlipidic meal; • increased by 6 times after hyperlipidic meal so that the plasma/os ratio passes from 0.09 to 0.55.

The conditions of series [7]: cited from earlier work. This is another data set of the same source.
In another series the test system is CD11b. Kind of series: CD11b protein levels in mice treated with Aβ icv, Western blotting (FIG. 8). The class given is in vivo. Particulars: PFC and HIPP, HA4 0.2 mg/mouse.
In a further series the test system is GFAP. In words: GFAP protein levels in mice treated with Aβ icv, Western blotting (FIG. 9). The class given is in vivo. Particulars: PFC and HIPP, HA4 0.2 mg/mouse.
Another series concerns glutamate (GLU). Kind of series: Glutamate levels in mice treated with Aβ icv (FIG. 7). The class given is in vivo. The settings on record: after 7 days. Here is the method: (§2) The Aβ1-42, obtained from Tocris (Bristol, UK), was dissolved in sterile double-distilled pyrogenic-free water, as vehicle, to obtain a final concentration 4 μM [Colaianna M et al. 2010]. Mice were anesthetized with a solution (0.85 in ml/kg, i.p.), containing ketamine (Sigma Aldrich, Milan, Italy, 100 mg/10 ml), xylazine (Sigma Aldrich, Milan, Italy, 100 mg/10 ml) and acepromazine (prequillant, ATI Azienda Terapeutica Veterinaria Srl, 10 mg/10 ml) dissolved in saline solution. Animals were secured in a stereotaxic frame (David Kopf Instruments, Tujunga, CA, USA) and the peptide injection was accomplished in the lateral ventricle of mice at the following coordinates: AP=−0.2, ML=+1 e DV=2 relative to bregma, according to the atlas of Paxinos and Franklin [Paxinos G and Franklin K B J 2019]. […] At the time of dissection, the correct needle track was assessed. […]
(§3) 5-HT, noradrenaline (NA), and KYN levels were measured in the PFC and HIPP of mice by HPLC coupled with an electrochemical detector (Ultimate ECD, Thermo Scientific Dionex, Milan, Italy) as already reported [Francavilla M et al. 2012, Morgese M G et al. 2016]. […] GLU concentrations were determined by HPLC coupled with fluorescence detection (emission length 460 nm; excitation length 340 nm), as previously published [Francavilla M et al. 2012]. […]

For the next series, the system named is kynurenine (KYN). In words: Kynurenine levels in mice treated with Aβ icv (FIG. 6). The class given is in vivo. Particulars: prefrontal cortex and hippocampus, HA4 0.2 mg/mouse. The procedure:
as §2, §3

For series [8] the following is noted: cited from earlier work. The source holds these as a separate data set.
The conditions of series [9]: mice; cited from earlier work.
The subject of a further series is mice treated with Aβ icv. In words: Splash test in SHAM mice and mice treated with Aβ icv (FIG. 4). The class given is in vivo. The settings on record: after 7 days, HA4 200 μg, βCP 50 μg, βBA 100 μg, FE 50 μg sublingually. The procedure:
The Aβ1-42, obtained from Tocris (Bristol, UK), was dissolved in sterile double-distilled pyrogenic-free water, as vehicle, to obtain a final concentration 4 μM [Colaianna M et al. 2010]. Mice were anesthetized with a solution (0.85 in ml/kg, i.p.), containing ketamine (Sigma Aldrich, Milan, Italy, 100 mg/10 ml), xylazine (Sigma Aldrich, Milan, Italy, 100 mg/10 ml) and acepromazine (prequillant, ATI Azienda Terapeutica Veterinaria Srl, 10 mg/10 ml) dissolved in saline solution. […] At the time of dissection, the correct needle track was assessed. […]
as §1
All behavioral experiments were conducted at 5 or 30 min after sublingual administrations of βBA or vehicle in mice treated with SHAM or AP. Based on the observed behavioral results, neurochemical and biochemical quantifications were performed 30 min after administration of βCP, FE, and βBA or vehicle in SHAM- or Aβ-treated mice.
Splash test. […] The test was videotaped and later an observer, blind to the trial, scored for latency to the first grooming event and duration of self-care behavior during the period of the test (5 min).

For series [10] the following is noted: in vivo; cited from earlier work.
For series [11] the following is noted: cited from earlier work. The source holds these as a separate data set.
The next series concerns dopamine (DA). In words: Dopamine (DA) levels in Aβ icv-treated mice (FIG. 5c). Particulars: HIPP. The class given is in vivo.
[12] abbreviates: intact animals, hyaluronic acid only (FIG. 3).

These results are taken from patent US20260115162A1, “COMPOSITION OR ASSOCIATION OF COMPOUNDS PREFERABLY FOR USE IN THE TREATMENT OF NERVOUS DISEASES IN PARTICULAR NEURODEGENERATIVE DISEASES, METHOD FOR THE PREPARATION OF SUCH COMPOSITION OR ASSOCIATION OF COMPOUNDS AND USES THEREOF” (PHARMACEUTICA SAN MARCO S.R.L., priority 2022, published 2026).

“Also recorded” adds a separate entry of the source. Like-named read-outs stand apart in the source and are kept apart here. Some results are limits rather than exact numbers.

Description for CD11b: (§4) The total amount of proteins was measured in homogenates by using Pierce BCA Assay (Thermo Fisher Scientific, Cleveland, OH, USA). […] After HRP-conjugated specific antibody incubation, ECL reagent (Bio-Rad Laboratories Inc., Segrate (MI), Italy) was added to the immune complex and chemiluminescence was detected by ChemiDoc MP system (Bio-Rad Laboratories Inc., Segrate (MI), Italy). Optical densities of the bands were measured using Image J software (http://rsb.info.nih.gov/ij/ accessed on 15 Mar. 2021) and normalized against bands relative to -actin (1:5,000, Abcam, Cambridge, UK).
Description for GFAP: as §4

For the compound Hyaluronic acid, the LD50 in series [1] (intraperitoneum) is listed as 1,500 mg/kg; in series [1] (subcutaneous), > 4,000 mg/kg; in series [1] (via os), > 2,400 mg/kg.
Regarding `CC1=CC=C[C@]2(C)Cc3occ(C)c3C[C@@H]12` [FE, furanoeudesma-1,3-diene], in the series on intact mice, the “lowest dose showing antidepressant effects” value is reported as 5 mg/kg; the “effect in behavioral tests, individually” value was “antidepressant and anxiolytic effect”.
For the compound `CC(=O)O[C@@H]1CC[C@@]2(C)[C@@H](CC[C@]3(C)[C@@H]2C(=O)C=C2[C@@H]4[C@@H](C)[C@H](C)CC[C@]4(C)CC[C@]23C)[C@@]1(C)C(=O)O` [AKBA, acetyl-11-keto-beta-boswellic acid], the brain/plasma ratio is given as 0.81 in [2] and 0.4 in series [3] (Gerbeth K et al. 2013). In addition, the “reduction of blood concentration compared to the dose introduced orally” value in series [3] (mice, via os, intestinal mucosa to blood) was 80 times. Besides, the “concentration in the brain” value in series [3] (mice, via os) was 37.5 ng/g o ng/ml. Further, the “concentration in the plasma” value is 93 ng/g o ng/ml in series [3] (mice, via os); 6 fasted ng/g o ng/ml in series [5] (fasted conditions); 28 hyperlipidic ng/g o ng/ml in series [5] (hyperlipidic fed conditions); 0-15 ng/g o ng/ml in series [7] (patients, via os). Besides, in series [3] (mice), the “reduction of concentration when crossing the blood-brain barrier” value is on record as “more than twice”. In addition, the Δos/brain in series [4] was 204. For the same compound, the Δos/plasma in series [4] is on record as 82; in [6] (fasted conditions) it was 68 fasted; in series [6] (hyperlipidic fed conditions), 15 hyperlipidic. Further, the Δplasma/brain in [4] is recorded as 2.5. Further, in [7] (80 mg AKBA to 13 patients, found in only one of them), the blood concentration was 15.5 ng/mL.
`CC(=O)N[C@H]1[C@H](O[C@H]2[C@H](O)[C@@H](O)[C@H](O[C@H]3[C@H](O)[C@@H](CO)OC(O)[C@@H]3NC(C)=O)O[C@@H]2C(=O)O)O[C@H](CO)[C@@H](O)[C@@H]1O[C@@H]1O[C@H](C(=O)O)[C@@H](O)[C@H](O)[C@H]1O` (stereo partly shown) [HA4, hyaluronic acid HA4 tetrasaccharide]: in the series on intact mice (setting [12]), the freezing result was “clear anxiolytic and antidepressant effect”; the locomotor activity result is on record as “does not create deficits in the animal's locomotor activity”. The “effect in behavioral tests, individually” value with intact mice is “antidepressant and anxiolytic effect”. In the series on CD11b, the CD11b protein levels entry is “Significant reduction of CD11b in both PFC and HIPP”. The GFAP protein levels entry in the series on GFAP is “significant reduction; also recorded: removes GFAP alterations in both PFC and HIPP”. Besides, the Glutamate levels entry in the series on glutamate (GLU) is given as “increase in glutamate”. Besides, the Kynurenine levels result with kynurenine (KYN) is reported as “significant reduction”.
For the compound `CC/C=C\C/C=C\C/C=C\C/C=C\C/C=C\C/C=C\CCC(=O)O` [DHA, docosahexaenoic acid], in [8] (adult humans), the harmless dose result is “at least 7.5 g/day”. Moreover, the safe dose result was “at least 315 mg/day” in [8] (children) and at most 3.2 g/kg/day in series [9].
For the compound `C=C1CC/C=C(\C)CC[C@@H]2[C@@H]1CC2(C)C` [βCP, β-caryophyllene], the “Splash test latency time (antidepressant effect)” value in the series with mice treated with Aβ icv is on record as “antidepressant effect”. Besides, in the series with intact mice, the “lowest dose showing antidepressant effects” value was found to be 5 mg/kg; the “effect in behavioral tests, individually” value is “antidepressant and anxiolytic effect”. Further, the “toxic dose (category 5 substance, OECD guidelines)” value in [10] is listed as “greater than 2,000 mg/kg”. Moreover, the pathological changes result in [11] (mice, 100 mg/kg i.p.) is on record as “no evidence of pathological changes”. In addition, the LD50 in series [11] (mouse, in vivo, ip) is 316 mg/kg. The “Dopamine (DA) levels” value in the series with dopamine (DA) is “increase in dopaminergic activity in HIPP”.
